“And” between values parts separate entries of the source, which are not always exact repeats. Identical values can stand only once. Like-named read-outs stand apart in the source and are kept apart here.

Results on 1 compound are retold here after paper PMC12196235, “Enhancing the Pharmacological Properties of Triterpenes Through Acetylation: An Anticancer and Antioxidant Perspective” (Molecules, 2025).

Test [1] relates to MCF-7 (human breast carcinoma). In words: MTT assay, MCF-7. In kind it is cell-based. In short, it runs like this:
(§1)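 MTT formazan read-out of viable cells after compound exposure at 37 °C. MCF-7 and A-549 grown in RPMI 1640, HeLa in DMEM, HDF normal fibroblasts in Fibroblast Basal Medium; each with 10% FBS, 1% L-glutamine and 1% penicillin/streptomycin.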
In general terms: Formazan colour is commonly taken as a measure of viable cells.

The test system of test [2] is A-549 (human lung carcinoma). Kind of test: MTT assay, A-549. Type of test: cell-based. In short, it runs like this: as §1
Test [3] concerns HDF (human dermal fibroblasts). Kind of test: MTT assay, normal HDF. Type of test: cell-based. The note with it: Homo sapiens, Fibroblast, read-out: IC50 (±SD), HDF. Summed up: as §1
In test [4] the test system is PC-3. Kind of test: Apoptosis assay (Cell Death Detection ELISA Plus), PC-3. Type of test: cell-based, human. The note with it: PC-3, 4 h incubation, enrichment of mono- and oligonucleosomes vs negative control. On the procedure:
The induction of apoptosis by tested compounds was determined with Cell Death Detection ELISA Plus from Roche Diagnostics GmbH (Mannheim, Germany).
Cell Death Detection ELISA Plus is an enzyme immunoassay for determining cytoplasmic histone-associated DNA fragments (mono- and […]) after induced cell death. Cells (10^4) were pipetted into wells of 96-well plates, and test compounds were added at final concentrations of 0.1, 1.0 and 10.0 µg × mL^−1. Cells incubated in the absence of test compounds served as negative controls. After 4 h of incubation, cells were harvested by centrifugation of the plates for 10 min at 200× g. Supernatants were removed carefully, and cell pellets were resuspended in 200 µL of cell lysis buffer and incubated for 30 min at room temperature. After centrifugation of the plates (10 min at 200× g), 20 µL of cell lysates was transferred in duplicate into wells of provided streptavidin-coated microplates. Then, 80 µL of the immunoreagent containing a mixture of anti-histone-biotin monoclonal antibody and anti-DNA-peroxidase monoclonal antibody was added to each well. The microplates were covered with a provided adhesive foil and incubated for 2 h at room temperature. Thereafter, the solution in the wells was removed by tapping the microplate. The wells were rinsed three times with incubation buffer, and 100 µL of substrate (2,2′-azino-bis [3-ethylbenzothiazoline-6-sulphonic acid], ABTS) was added to each well. After 10–20 min, 100 µL of ABTS stop solution was pipetted to each well, and the absorbance was read at 405 nm (test wavelength) and 490 nm (reference wavelength). The apoptotic index was calculated based on the enrichment of mono- and oligonucleosomes according to the following equation:apoptotic index = [{A405(sample) − A490(sample)}/{A405(negative control) − A490(negative control)}]
In general terms: In an ELISA, binding on a coated surface is turned into a signal by an enzyme label.

Test [5] can be described thus: CUPRAC antioxidant assay. The note with it: calculated from Trolox standard curve. Summed up: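 The CUPRAC reagent was made from 7.5 mM neocuproine, 10 mM CuCl2 and ammonium acetate buffer pH 7.0; the DPPH reagent was a 0.2 mM solution. Both were read spectrophotometrically in plates. Activity is given as % inhibition and as Trolox equivalents from standard curves.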

The test system of test [6] is CCRF-CEM, CEM (human T lymphoblastic leukemia). The note with it: cited from earlier work.
Test [7] has as its system A-549 (human lung carcinoma). The conditions noted are these: ref 47; read-out: anticancer IC50 (A-549); cited from earlier work.
Test [8] concerns SK-N-AS (human neuroblastoma). The conditions noted are these: ref 47; read-out: anticancer IC50 (SK-N-AS); cited from earlier work.
The subject of test [9] is TE-671 (human rhabdomyosarcoma–medulloblastoma). The note with it: ref 47; read-out: anticancer IC50 (TE-671); cited from earlier work.
For test [10], the system named is T-47D (human breast carcinoma). The note with it: cited from earlier work; for IC50: read-out: anticancer IC50 (T-47D).
Test [11] has as its system RPMI-8226 (human multiple myeloma). The note with it: ref 47; read-out: anticancer IC50 (RPMI-8226); cited from earlier work.
Test [12] deals with Jurkat 1E.6 (human T cell leukemia). The conditions noted are these: ref 47; read-out: anticancer IC50 (Jurkat 1E.6); cited from earlier work.
The subject of test [13] is HPOC (human ovarian carcinoma). The conditions noted are these: ref 47; read-out: anticancer IC50 (HPOC); cited from earlier work.
Test [14] deals with SW-707 (human colon carcinoma). The conditions noted are these: ref 49, cited from earlier work.

For the compound `C=C(C)[C@@H]1CC[C@]2(CO)CC[C@]3(C)[C@H](CC[C@@H]4[C@@]5(C)CC[C@H](O)C(C)(C)[C@@H]5CC[C@]43C)[C@@H]12` [5a, betulin], the IC50 in [1] (Homo sapiens, MCF7, MTT assay, MCF-7, read-out: IC50 (±SD), MCF-7) is 18.1 µM; in test [2] (Homo sapiens, A549, MTT assay, A-549, read-out: IC50 (±SD), A-549) it was 19.6 µM; in test [3], 15.8 µM; in test [6] (ref 26, read-out: anticancer IC50 (CCRF-CEM, CEM)) it was 250 µM; in test [6] (ref 49, read-out: anticancer IC50 (CCRF/CEM)), 24.6 µM; in test [7], 7.4 µM. For the same compound, the IC50 in test [8] is 2500 nM; in test [9] it was 10.3 µM; in test [10] (ref 47), 5.2 µM; in test [10] (ref 49) it was 73.2 µM; in [11] it was 6.4 µM; in test [12] it was 6.7 µM. Moreover, the figures for the IC50 in test [13] and in test [14] (read-out: anticancer IC50 (SW-707)) were 2800 nM and 51.7 µM, respectively. Also, the “Selectivity index (SI), MCF-7” value in [1] (IC50 HDF / IC50 MCF-7) amounted to 0.87. Also, the “Selectivity index (SI), A-549” value in [2] (IC50 HDF / IC50 A-549) is given as 0.81. Moreover, the “Apoptotic index (AI), PC-3” value in test [4] is given as 5.82 (0.03). Besides, the “Trolox Equivalent, CUPRAC Assay” value in test [5] is 0.299 mg/mL and 0.299 ± 0.00663 mg/mL. In addition, in [6] (ref 49), the “anticancer IC50 (CCRF/CEM)” value is recorded as 10.9 µg/mL. The “anticancer IC50 (T-47D)” value in test [10] (ref 49) was 32.4 µg/mL. Moreover, in test [14], the “anticancer IC50 (SW-707)” value is listed as 22.9 µg/mL.
